ChEMBL document CHEMBL1150447, “Nitrogen and sulfur analogues of the secoCI alkylating agent: Synthesis and cytotoxicity” (Bioorg Med Chem Lett, 1996)

Columns and labels:
Type in all cases: functional, cell-based
EMT6 = test: Compound was evaluated for cytotoxicity against murine mammary carcinoma EMT6 cell lines for 4 hr at pH-7.4; conditions: Mus musculus, EMT6, 4 h
UV4 = test: Compound was evaluated for cytotoxicity against CHO UV4 cell lines for 4 hr at pH-7.4; conditions: Cricetulus griseus, UV4, 4 h
CHO-AA8 = test: Compound was evaluated for cytotoxicity against CHO AA8 cell lines for 4 hr at pH-7.4; conditions: Cricetulus griseus, CHO-AA8, 4 h

SMILES	IC50 (EMT6)	IC50 (UV4)	IC50 (CHO-AA8)
CNc1ccc2c(c1)N(C(=O)c1cc3cc(OC)c(OC)c(OC)c3[nH]1)CC2CCl (configuration not stated)	0.11 µM	0.055 µM	0.22 µM
CS(=O)(=O)N1CC(CCl)c2ccc(S)cc21 (configuration not stated)	> 200 µM	124 µM	> 200 µM
CSc1ccc2c(c1)N(S(C)(=O)=O)CC2CCl (configuration not stated)	> 200 µM	> 200 µM	> 200 µM
CNc1ccc2c(c1)N(S(C)(=O)=O)CC2CCl (configuration not stated)	13 µM	4.1 µM	50 µM
COc1cc2cc(C(=O)N3CC(CCl)c4ccc(N(C)C)cc43)[nH]c2c(OC)c1OC (configuration not stated)	0.11 µM	0.088 µM	0.28 µM
COc1cc2cc(C(=O)N3CC(CCl)c4ccc(N)cc43)[nH]c2c(OC)c1OC (configuration not stated)	–	0.059 µM	0.32 µM
CS(=O)(=O)N1CC(CCl)c2ccc(O)cc21 (configuration not stated)	7.7 µM	1.9 µM	20 µM
CS(=O)(=O)N1CC(CCl)c2ccc(SSc3ccc4c(c3)N(S(C)(=O)=O)CC4CCl)cc21 (configuration not stated)	> 50 µM	> 50 µM	> 50 µM
CN(C)c1ccc2c(c1)N(S(C)(=O)=O)CC2CCl (configuration not stated)	20 µM	15 µM	72 µM
CS(=O)(=O)N1CC(CCl)c2ccc(N)cc21 (configuration not stated)	33 µM	13 µM	158 µM
COc1cc2cc(C(=O)N3CC(CCl)c4ccc(O)cc43)[nH]c2c(OC)c1OC (configuration not stated)	0.0022 µM	0.001 µM	0.0065 µM
